These are literature values, as cited in US20040059096A1, “Anti-ciguatoxin monoclonal antibody” (priority 2001, published 2004).

The conditions of the series: species and route not given.

For the molecule `C[C@@H]1C[C@@H]2O[C@@H]3[C@@H](C)[C@H](O)[C@@H]4OC5(C[C@H](O)CO5)[C@@H](C)[C@H](C)[C@H]4O[C@H]3C[C@H]2O[C@H]2C[C@H]3O[C@@H]4/C=C\C[C@H]5O[C@H]6C=C[C@H]7O[C@H]8[C@H](O)[C@H]9O[C@@H](/C=C/[C@H](O)CO)C=CC[C@@H]9O[C@@H]8C[C@@H]7O[C@@H]6C=C[C@@H]5O[C@@H]4C[C@@H](O)[C@]3(C)O[C@@H]2C1` (stereo partly shown) [CTX], the LD50 is 0.35 µg/kg.

The term LD50 denotes the dose expected to kill half of the subjects tested.
